Reference: publication PMC10222454, “Characterization of the Molecular Diversity and Degranulation Activity of Mastoparan Family Peptides from Wasp Venoms” (Toxins, 2023)
Read-outs that look alike come from different tables or passages of the source. Ends that are not written are not given here.

Legend:
RBL-2H3 cells = assay type: cell-based, rat; settings: for degranulation activity of mutant compared with Protopolybia-MPIII, in words: mutants of Protopolybia-MPIII, Table 3
Experimental: (§1) RBL-2H3 cells (rat mucosal-type mast cell line) and P815 cells (mouse mast cell tumor cell line) were obtained from the BeNa Culture Collection (Xinyang, China). RBL-2H3 cells were cultured in DMEM (Gibco, Wuhan, China) supplemented with 15% FBS (Gibco), and P815 cells were maintained in RPMI 1640 basic medium supplemented with 10% FBS and antibiotics (100 mg/L streptomycin and 1 × 10^5 U/L penicillin) in a humidified atmosphere (5% CO2, 37 °C).
(§2) Degranulation was analyzed by measuring the release of the granule marker N-acetyl-D-glucosaminidase (β-hexosaminidase), which colocalizes with histamine, as described in [24]. For this, 2 × 10^5 P815 cells/mL or 1.5 × 10^5 RBL-2H3 cells/mL were seeded in 96-well cell culture plates. Twelve hours later, the cells were incubated with various concentrations of mastoparans dissolved in 100 μL HEPES buffer (137 mM NaCl, 2.7 mM KCl, 1 mM MgCl2, 1.8 mM CaCl2, 20 mM HEPES, 1 mg/mL BSA, and 1 mg/mL glucose, pH 7.4) for 15 min at 37 °C and 5% CO2. Then, the reactions were quenched by the addition of 0.15 mL of ice-cold HEPES buffer. After centrifugation, the supernatants were sampled for the β-hexosaminidase assay. Briefly, 50 μL samples of the cell culture supernatants and 50 μL of the substrate, 5 mM p-nitrophenyl-N-acetyl-b-D-glucosaminide (Sigma) in 0.2 M citrate, pH 4.5, were incubated in 96-well plates at 37 °C and 5% CO2 for 16–18 h to yield the chromophore p-nitrophenol, and the reactions were stopped by the addition of 100 μL of 0.2 M glycine solution, pH 10.7. The absorbance of the colored product was assessed at 405 nm using a microtiter plate reader. The values for β-hexosaminidase released in the medium are expressed as the percentage of total β-hexosaminidase, which was measured in the cells after lysis in 0.1% Triton X-100. The experiment was repeated three times, and the results represent the mean and standard deviation (SD) of quadruplicate tests. The percent degranulation was calculated according to the following equation:Degranulation Rate (%) = 100% × (Amastoparans − AHEPES)/(ATriton X-100 − AHEPES).
Statistical analysis was performed with GraphPad Prism software. The curve of mast cell degranulation induced by wasp mastoparans was generated in SigmaPlot 12.5 software, and the EC50 was calculated according to the following equation (Four-Parameter Logistic Curve): y = min + (max − min)/(1 + (x/EC50) […] Hillslope).

P815 cells = experiment: Mast cell degranulation activity (β-hexosaminidase release) in P815 cells; assay type: cell-based, mouse
Experimental: as §1, §2

[1] = RBL-2H3 cells, 80 μg/mL peptide, 15 min at 37 °C, % of total β-hexosaminidase (0.1% Triton X-100 lysis)
[2] = P815 cells, 80 μg/mL peptide, 15 min at 37 °C, % of total β-hexosaminidase (0.1% Triton X-100 lysis)

Compound	EC50 (RBL-2H3 cells; pH 7.4) [µM]	other results
INWLKLGKKVSAAL-NH2 [Protopolybia-MP III-14]	–	EC50 (RBL-2H3 cells): > 325 µM; EC50 (μg/mL), Protopolybia-MPIII and mutations (RBL-2H3 cells): >500 µg/mL; degranulation activity of mutant compared with Protopolybia-MPIII, in words (RBL-2H3 cells): almost lost
INWLKLGKAVSDAL-NH2 [Protopolybia-MP III-2]	–	EC50 (RBL-2H3 cells): 193 ± 28.8 µM
INWLKLGKKVIDIL-NH2 [Protopolybia-MP III-7]	–	EC50 (RBL-2H3 cells): 25.2 ± 1.56 µM
INWKALLDAAKKVL-NH2 [Protonectarina-MP]	46.4 ± 3.1	–
INWLKLGKMVIDAL-NH2 [Polybia-MPII]	6.79 ± 0.4	–
LKLLGIVKKVLGAI-NH2 [EMP-EM2]	72.8 ± 19.8	–
INWLKLGKKVIAAL-NH2 [Protopolybia-MP III-6]	–	EC50 (RBL-2H3 cells): 69.1 ± 12.3 µM
INWKKIKSIIKAAMN-NH2 [MP-V1]	130 ± 46.6	–
INWLKLGKAVSDIL-NH2 [Protopolybia-MP III-9]	–	EC50 (RBL-2H3 cells): 49.6 ± 1.73 µM
INLKVFAALVKKFL-NH2 [Mastoparan-T1]	32.1 ± 10	–
INWLKLGKAVIAIL-NH2 [Protopolybia-MP III-10]	–	EC50 (RBL-2H3 cells): 8.39 ± 0.93 µM
INWLKLGKKVIAIL-NH2 [Protopolybia-MP III-12]	–	EC50 (RBL-2H3 cells): 47.7 ± 14.1 µM
INWLKLGKAVSAIL-NH2 [Protopolybia-MP III-11]	–	EC50 (RBL-2H3 cells): > 325 µM; degranulation activity of mutant compared with Protopolybia-MPIII, in words (RBL-2H3 cells): significantly decreased
INWLKLGKAIIDAL-NH2 [Agelaia-MPI]	5.25 ± 0.87	–
IDWLKLRVISVIDL-NH2 [Polybia-MPIV]	> 200	Degranulation at 80 μg/mL, RBL-2H3 (RBL-2H3 cells; [1]): 6%; EC50 (μg/mL), RBL-2H3 (RBL-2H3 cells; pH 7.4): >300 µg/mL; Degranulation at 80 μg/mL, P815 (P815 cells; [2]): <20%
INWLKLGKAVIAAL-NH2 [Protopolybia-MP III-3]	–	EC50 (RBL-2H3 cells): 15.3 ± 3.53 µM
INWKKIAEIGKQVLSAL-NH2 [Dominulin B]	–	Degranulation at 80 μg/mL, RBL-2H3 (RBL-2H3 cells; [1]): 24%; EC50 (μg/mL), RBL-2H3 (RBL-2H3 cells; pH 7.4): 148.45 ± 51.31 µg/mL; Degranulation at 80 μg/mL, P815 (P815 cells; [2]): <20%
INWLKLGKAVSAAL-NH2 [Protopolybia-MP III-8]	–	EC50 (RBL-2H3 cells): 140 ± 7.06 µM
FDLLGLVKSVVSAL-NH2 [EpVP2b]	25.9 ± 2.88	–
INLKAIAALVKKVL-NH2 [HR1]	48.8 ± 3.57	–

Compound	EC50 (RBL-2H3 cells; pH 7.4) [µM]	other results
INWLKLGKKMMSAL-NH2 [MP]	66.8 ± 30.7	–
INWLKLGKKILGAL-NH2 [PDD-B]	21.7 ± 3.78	–
INWLKLGKAVIDAL-NH2 [Protopolybia-MPIII]	22.5 ± 2.96	EC50 (RBL-2H3 cells): 21.7 ± 3.44 µM
LNLKGIFKKVASLLT-OH [Eumenitin]	–	degranulation of RBL-2H3 / mast cells, in words (RBL-2H3 cells; RBL-2H3 cells): hardly induced mast cell degranulation; Degranulation at 80 μg/mL, RBL-2H3 (RBL-2H3 cells; [1]): 8%; EC50 (μg/mL), RBL-2H3 (RBL-2H3 cells; pH 7.4): >300 µg/mL; Degranulation at 80 μg/mL, P815 (P815 cells; [2]): <20%
CC[C@H](C)[C@H](N)C(=O)N[C@@H](CC(N)=O)C(=O)N[C@@H](CC(C)C)C(=O)N[C@@H](CCCCN)C(=O)N[C@@H](C)C(=O)N[C@@H](CC(C)C)C(=O)N[C@@H](C)C(=O)N[C@@H](C)C(=O)N[C@@H](CC(C)C)C(=O)N[C@@H](C)C(=O)N[C@@H](CCCCN)C(=O)N[C@@H](CCCCN)C(=O)N[C@H](C(=O)N[C@@H](CC(C)C)C(N)=O)[C@@H](C)CC [Mastoparan(-L), reference compound]	52.1 ± 3.21	–
INLKAIAAFAKKLL-NH2 [Mastoparan-T]	138 ± 68.4	–
CC[C@H](C)[C@H](NC(=O)[C@H](CC(=O)O)NC(=O)[C@@H](N)Cc1ccccc1)C(=O)N[C@@H](CCSC)C(=O)NCC(=O)N[C@@H](CC(C)C)C(=O)N[C@H](C(=O)N[C@@H](CCCCN)C(=O)N[C@@H](CCCCN)C(=O)N[C@H](C(=O)N[C@@H](C)C(=O)NCC(=O)N[C@@H](C)C(=O)N[C@@H](CC(C)C)C(N)=O)C(C)C)[C@@H](C)CC [EMP-ER]	76.2 ± 5.81	–
IDWLKLGKMVMDVL-NH2 [Polybia-MPIII]	114 ± 59.3	–
INWKKMAATALKMI-NH2 [Parapolybia-MP]	89.4 ± 19.9	–
LKLMGIVKKVLGAL-NH2 [MP-EM1]	197 ± 164	–
INLKALAALVKKVL-NH2 [Mastoparan-II]	58.7 ± 24.8	–
INWKGIAAMAKKLL-NH2 [Mastoparan-X(V)]	78.8 ± 15	–
GRILSFIKGLAEHL-NH2 [EMP-OD]	> 200	Degranulation at 80 μg/mL, RBL-2H3 (RBL-2H3 cells; [1]): 4%; EC50 (μg/mL), RBL-2H3 (RBL-2H3 cells; pH 7.4): >300 µg/mL; Degranulation at 80 μg/mL, P815 (P815 cells; [2]): <20%
INLKAIAALAKKLL-NH2 [Mastoparan-M]	> 200	Degranulation at 80 μg/mL, RBL-2H3 (RBL-2H3 cells): 10%; EC50 (μg/mL), RBL-2H3 (RBL-2H3 cells; pH 7.4): >300 µg/mL; Degranulation at 80 μg/mL, P815 (P815 cells): <20%
INWKGIAAMKKLL-NH2 [Mastoparan-like peptide 12b]	> 200	Degranulation at 80 μg/mL, RBL-2H3 (RBL-2H3 cells; [1]): 11%; EC50 (μg/mL), RBL-2H3 (RBL-2H3 cells; pH 7.4): >300 µg/mL; Degranulation at 80 μg/mL, P815 (P815 cells; [2]): <20%
INWLKLGKQILGAL-NH2 [Pm-R3]	7.6 ± 0.76	–
INWKKIASIGKEVLKAL-NH2 [PMM2]	36.6 ± 4.61	–
INLKALLAVAKKIL-NH2 [Mastoparan-C]	32.6 ± 8.56	–
INWKKIFQKVKNLV-NH2 [PDD-A]	65.8 ± 19.5	–
INWKAIIEAAKQAL-NH2 [Protopolybia-MPII]	77.9 ± 9.08	–

Compound	EC50 (RBL-2H3 cells; pH 7.4) [µM]	other results
INWLKLGKAVIDIL-NH2 [Protopolybia-MP III-4]	–	EC50 (RBL-2H3 cells): 28.1 ± 3.71 µM
INWLKLGKKVSAIL-NH2 [Protopolybia-MPI]	117 ± 38.3	–
IKWKAILDAVKKVL-NH2 [Mastoparan-A]	28.4 ± 1.55	–
INWKAILQRIKKML-NH2 [Agelaia-MPII]	34.7 ± 9.03	–
INWLKLGKKVIDAL-NH2 [Protopolybia-MP III-1]	–	EC50 (RBL-2H3 cells): 98.4 ± 8.43 µM
INLLKIAKGIIKSL-NH2 [EMP-AF]	76.9 ± 19.6	–
INWAKLGKLALQAL-NH2 [Ropalidia-MP]	33 ± 5.79	–
INWKKIKSLIKAAMS-NH2 [MP-V2]	88.9 ± 61.3	–
FDLLGLVKKVASAL-NH2 [EpVP2a]	31.6 ± 4.31	–
LNFKALAALAKKIL-NH2 [Pm-R2]	94.8 ± 73.5	–
INWLKLGKKVSDAL-NH2 [Protopolybia-MP III-5]	–	EC50 (RBL-2H3 cells): > 325 µM; EC50 (μg/mL), Protopolybia-MPIII and mutations (RBL-2H3 cells): >500 µg/mL; degranulation activity of mutant compared with Protopolybia-MPIII, in words (RBL-2H3 cells): almost lost
INWLKLGKKVSDIL-NH2 [Protopolybia-MP III-13]	–	EC50 (RBL-2H3 cells): 145 ± 24.4 µM
FDVMGIIKKIASAL-NH2 [EMP-EF]	25.1 ± 1.59	–
VDWKKIGQHILSVL-NH2 [Mastoparan-J]	37.3 ± 5.13	–
INLKVFAALVKKLL-NH2 [Mastoparan-T2]	24.2 ± 7.89	–
IDWKKLLDAAKQIL-NH2 [Polybia-MPI]	23.2 ± 2.09	–
INWLKLGKKILGAI-NH2 [Pm-R1]	22.9 ± 4.77	–
INLFGFAALVKKFL-NH2 [Mastoparan-T4]	18.2 ± 3.52	–
INLKAIAALAKKLF-NH2 [Mastoparan-AF]	18.1 ± 3.94	–
